ChEMBL document CHEMBL1201862, “PubChem BioAssay data set” (2004)
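Results reflect a 48-hour exposure of cells in 96-well plates to compound at five concentrations. The concentration for 50% growth inhibition is given as GI50.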 Active and inactive are the calls of the source. Rule as the data show it: active = GI50 up to about 1.1 µM and inactive = higher.

What was measured:
Assay in all cases: inhibition of tumour cell growth, NCI panel, 48 h
786-0 = system: 786-0
A549 = system: A549
ACHN = system: ACHN
CAKI-1 = system: CAKI-1
CCRF-CEM = system: CCRF-CEM
COLO 205 = system: COLO 205
DLD-1 = system: DLD-1
DMS-114 = system: DMS-114
DMS-273 = system: DMS-273
EKVX = system: EKVX
HCT-116 = system: HCT-116
HCT-15 = system: HCT-15
HL-60 = system: HL-60
HOP-62 = system: HOP-62
HOP-92 = system: HOP-92
HT-29 = system: HT-29
IGROV-1 = system: IGROV-1
K562 = system: K562
KM-20L2 = system: KM-20L2
KM12 = system: KM12
LOX IMVI = system: LOX IMVI
LXFL 529 = system: LXFL 529
M14 = system: M14
M19-MEL = system: M19-MEL
MOLT-4 = system: MOLT-4
Malme-3M = system: Malme-3M
NCI-H226 = system: NCI-H226
NCI-H23 = system: NCI-H23
NCI-H460 = system: NCI-H460
NCI-H522 = system: NCI-H522
OVCAR-3 = system: OVCAR-3
OVCAR-4 = system: OVCAR-4
OVCAR-5 = system: OVCAR-5
OVCAR-8 = system: OVCAR-8
RPMI-8226 = system: RPMI-8226
RXF 393 = system: RXF 393
RXF 631 = system: RXF 631
SF-268 = system: SF-268
SF-539 = system: SF-539
SK-MEL-28 = system: SK-MEL-28
SK-MEL-2 = system: SK-MEL-2
SK-MEL-5 = system: SK-MEL-5
SK-OV-3 = system: SK-OV-3
SN12C = system: SN12C
SNB-19 = system: SNB-19
SNB-75 = system: SNB-75
SNB-78 = system: SNB-78
SR = system: SR
SW-620 = system: SW-620
TK-10 = system: TK-10
U-251 = system: U-251
UACC-257 = system: UACC-257
UO-31 = system: UO-31
XF498 = system: XF498
A498 = system: A498
HCC 2998 = system: HCC 2998
HOP-18 = system: HOP-18
SF-295 = system: SF-295
UACC-62 = system: UACC-62

Measured: GI50

CN1OC2OC(=O)OC2[C@H]1[C@H]1O[C@H](c2ccccc2)OC1(C)c1cc(OC(=O)c2ccccc2)ccc1OC(=O)c1ccccc1 (some centres undefined)
inactive: 786-0 > 50 µM | A549 > 50 µM | ACHN > 50 µM | CAKI-1 > 50 µM | CCRF-CEM > 50 µM | COLO 205 > 50 µM | DLD-1 > 50 µM | DMS-114 > 50 µM | DMS-273 > 50 µM | EKVX > 50 µM | HCT-116 > 50 µM | HL-60 > 50 µM | HOP-62 > 50 µM | HOP-92 > 50 µM | HT-29 > 50 µM | IGROV-1 > 50 µM | K562 > 50 µM | KM-20L2 > 50 µM | KM12 > 50 µM | LOX IMVI > 50 µM | LXFL 529 > 50 µM | M14 > 50 µM | M19-MEL > 50 µM | MOLT-4 > 50 µM | Malme-3M > 50 µM | NCI-H226 > 50 µM | NCI-H23 > 50 µM | NCI-H460 > 50 µM | NCI-H522 > 50 µM | OVCAR-3 > 50 µM | OVCAR-4 > 50 µM | OVCAR-5 > 50 µM | OVCAR-8 > 50 µM | RPMI-8226 > 50 µM | RXF 393 > 50 µM | RXF 631 > 50 µM | SF-268 > 50 µM | SF-539 > 50 µM | SK-MEL-28 > 50 µM | SK-MEL-2 > 50 µM | SK-MEL-5 > 50 µM | SK-OV-3 > 50 µM | SN12C > 50 µM | SNB-19 > 50 µM | SNB-75 > 50 µM | SNB-78 > 50 µM | SR > 50 µM | SW-620 > 50 µM | TK-10 > 50 µM | U-251 > 50 µM | UACC-257 > 50 µM | UO-31 > 50 µM | XF498 > 50 µM
> 50 µM: HCT-15

Cc1ccc(NC(=O)c2cccc([N+](=O)[O-])c2O)c([N+](=O)[O-])c1
14.4 µM: HCT-15
inactive: 786-0 12.7 µM | A498 16 µM | A549 21.6 µM | ACHN 16.4 µM | CAKI-1 29.5 µM | CCRF-CEM > 100 µM | COLO 205 19.9 µM | DLD-1 14.9 µM | DMS-114 12.6 µM | DMS-273 11.7 µM | EKVX 23.2 µM | HCC 2998 15.9 µM | HCT-116 9.38 µM | HL-60 25.9 µM | HOP-18 19.2 µM | HOP-62 20.5 µM | HOP-92 21.5 µM | HT-29 12.1 µM | IGROV-1 20.9 µM | K562 18.8 µM | KM-20L2 18.7 µM | KM12 10.6 µM | LOX IMVI 11.5 µM | LXFL 529 13 µM | M14 16.7 µM | M19-MEL 14.3 µM | MOLT-4 > 10 µM | Malme-3M 14.9 µM | NCI-H226 3.29 µM | NCI-H23 13.6 µM | NCI-H460 5.58 µM | NCI-H522 14.1 µM | OVCAR-3 18.9 µM | OVCAR-4 13.5 µM | OVCAR-5 20.2 µM | OVCAR-8 12.5 µM | RPMI-8226 8.69 µM | RXF 393 11.3 µM | RXF 631 12.3 µM | SF-268 17.9 µM | SF-295 15.1 µM | SF-539 14.7 µM | SK-MEL-28 16.7 µM | SK-OV-3 26.9 µM | SN12C 16.5 µM | SNB-19 22.4 µM | SNB-75 13.7 µM | SNB-78 19.4 µM | SW-620 16.8 µM | U-251 14.3 µM | UACC-257 16.2 µM | UACC-62 12 µM | UO-31 24.1 µM | XF498 20.8 µM
